Entries after “also recorded” stand apart in the source; their conditions may differ.
Molecular target: T1, TbPFK (Trypanosoma brucei brucei, UniProt O15648)
T1 construct: made in house; host or cells: Escherichia coli C41 (pET28a, codon optimised gene)
T1 sequence (O15648 1-487): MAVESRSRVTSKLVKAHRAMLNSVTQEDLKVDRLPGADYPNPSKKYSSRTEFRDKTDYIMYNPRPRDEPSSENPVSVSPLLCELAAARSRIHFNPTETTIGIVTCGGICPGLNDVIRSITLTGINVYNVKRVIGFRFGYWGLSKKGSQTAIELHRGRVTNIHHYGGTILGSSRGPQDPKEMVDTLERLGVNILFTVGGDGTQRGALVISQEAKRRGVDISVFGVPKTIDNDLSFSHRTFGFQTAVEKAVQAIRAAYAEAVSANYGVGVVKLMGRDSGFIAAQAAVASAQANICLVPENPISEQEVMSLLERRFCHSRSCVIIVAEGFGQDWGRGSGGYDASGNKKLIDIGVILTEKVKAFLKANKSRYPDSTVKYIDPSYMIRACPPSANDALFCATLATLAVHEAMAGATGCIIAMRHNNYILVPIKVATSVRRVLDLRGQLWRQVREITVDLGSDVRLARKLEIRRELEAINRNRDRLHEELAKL
Test: PYK/LDH linked enzyme assay to determine inhibitor mode of action
Type: biochemical
Experimental: TbPFK inhibition was studied using an enzyme assay, in which production of ADP by TbPFK was coupled to the reactions of pyruvate kinase and lactate dehydrogenase: the conversion of pyruvate to lactate and NADH to NAD^+, is monitored by reduction of UV absorbance at 340 nm.
Parasite enzyme kinetic data were measured using N-terminally His6-tagged TbPFK expressed in Escherichia coli C41 cells, using a codon optimised gene inserted in a pET28a vector (Supplementary Methods 1). Recombinant human PFKs were expressed in PFK-deficient Saccharomyces cerevisiae. PFK enzyme inhibition was measured using an ADP-Glo^TM assay (Promega) in a 96-well plate format (Supplementary Methods 2.1), using a Spectramax© M5 Multimode Plate Reader to measure luminescence values which were converted to ADP concentrations. IC50 values were determined using a sigmoidal curve fitting algorithm in Kaleidagraph 4 (Supplementary Fig. 1). Mode of action studies were carried out using a linked enzyme assay coupling the forward reaction of TbPFK to the M1 isoform of human pyruvate kinase followed by lactate dehydrogenase. The change in UV absorbance at 340 nm resulting from the conversion of NADH to NAD^+ was measured at 25 °C in ‘kinetic mode’ on a Spectramax© M5 Multimode plate reader. […] An alternative linked enzyme assay was developed to control for the potential inhibitory activity of ATP on human PFK (Supplementary Methods 2.3).
The mechanism of TbPFK inhibition was studied using a coupled enzyme assay in which production of ADP by TbPFK was coupled to the reaction of human M1 isoform pyruvate kinase (hPYK), which converts ADP and phosphoenolpyruvate (PEP) to ATP and pyruvate. The reaction is further coupled to lactate dehydrogenase (LDH), which converts pyruvate and NADH to lactate and NAD^+, respectively. NADH conversion was monitored by measuring changes in NADH absorbance.
A 2.5x ‘assay mix’ was made containing 4.8 mM PEP, 1.2 mM NADH , 20 U/ml PYK, 33 U/ml LDH, 0 to 3mM ATP in assay buffer (10 mM MgCl2, 100 mM KCl, 50 mM TEA, 10% glycerol, 0.005% Tween-20, pH 7.4). For measuring activity 40 µl of assay mix was plated in a clear, non-binding 96 well plate (Greiner Bio-One cat. no. 655901) with 4-10 µl of the PFK sample (typically a 0.1 mg/ml stock) to be tested and 40 – 46 µl of assay buffer. The reaction was started upon addition of 10 µl of up to 6 mM F6P (0.6 mM final concentration). Absorbance at 340 nm was read at 20 second intervals for 10 minutes at 25 °C in ‘kinetic mode’ on a Spectramax© M5 Multimode plate reader. The gradient of the linear section of raw plots of NADH absorbance over time were used to obtain initial velocities.

With CN(C)CCn1ccc2c(ccn2Cc2ccc(Cl)c(Cl)c2)c1=O [CTCB-405, 1-[(3,4-Dichlorophenyl)methyl]-5-[2-(dimethylamino)ethyl] pyrrolo[3,2-c]pyridin-4-one] the “mode of inhibition with respect to ATP and F6P” value was “not competitive with either ATP or F6P; also recorded: not competitive with either substrate”, the “Vmax, Michaelis Menten best fit versus ATP” value (CTCB-405 at 0.5 x IC50) was 36.5 µmol/min/mg and the “Vmax, Michaelis Menten best fit versus F6P” value (CTCB-405 at 0.5 x IC50) was 38.7 µmol/min/mg. The “Vmax, Michaelis Menten best fit versus ATP” value (CTCB-405 at 1x IC50) was 33.8 µmol/min/mg, the “Vmax, Michaelis Menten best fit versus F6P” value (CTCB-405 at 1x IC50) was 33.6 µmol/min/mg and the “Vmax, Michaelis Menten best fit versus ATP” value (CTCB-405 at 2 x IC50) was 26.6 µmol/min/mg. For the same molecule, the “Vmax, Michaelis Menten best fit versus F6P” value (CTCB-405 at 2 x IC50) was 34.0 µmol/min/mg.
